Melting point data for 1 compound are collected here from patent US8703979B2, “Preparation of anticancer-active tricyclic compounds via alkyne coupling reaction” (Taheebo Japan Co., Ltd., priority 2010, dated 2014).

One may read the melting point as the temperature of the solid-liquid transition.

Structures are written as SMILES.

As to `CC(O)c1cc2c(s1)C(=O)c1cccc(O)c1C2=O` (stereo not shown) [Example 20, 2-(1-hydroxyethyl)-5-hydroxynaphtho[2,3-b]thiophene-4,9-dione], the melting point is > 193 °C (dec.).
